Calls of active or inactive are those of the source.
Key:
[1] = biological target: Heat shock protein HSP 90-alpha (Homo sapiens, UniProt P07900); assay type: functional, organism-based
Vero = assay: cells; assay type: functional; details: Chlorocebus sabaeus
Nonstructural protein 1 = Nonstructural protein 1 (Influenza A virus, UniProt Q194T2); assay type: functional, Influenza A virus (A/California/07/2009(H1N1))
[2] = NIH3T3 cell viability loss – ATP luminescence, mouse fibroblasts, counter-screen, dose response (AID 2010); assay type: functional, cell-based;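 note: cells exposed to compound for about 90 hours before reading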
[3] = Trypanosoma cruzi growth suppression in host cells – NIH3T3 host cells, beta-gal luminescence, confirmation (AID 2044); assay type: functional, cell-based;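 note: intracellular parasites grown in NIH/3T3 mouse fibroblasts as host cells; luminescent beta-galactosidase reporter signal from transgenic T. cruzi replicating inside host cells; inhibitors lower the luminescence signal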
[4] = biological target: T1, Sentrin-specific protease 7 (Homo sapiens, UniProt Q9BQF6); assay type: functional;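 note: Luminescence-based dose-response confirmation of ultra-high-throughput screening hits, measuring inhibition of SENP7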
T1 sequence (Q9BQF6 whole entry): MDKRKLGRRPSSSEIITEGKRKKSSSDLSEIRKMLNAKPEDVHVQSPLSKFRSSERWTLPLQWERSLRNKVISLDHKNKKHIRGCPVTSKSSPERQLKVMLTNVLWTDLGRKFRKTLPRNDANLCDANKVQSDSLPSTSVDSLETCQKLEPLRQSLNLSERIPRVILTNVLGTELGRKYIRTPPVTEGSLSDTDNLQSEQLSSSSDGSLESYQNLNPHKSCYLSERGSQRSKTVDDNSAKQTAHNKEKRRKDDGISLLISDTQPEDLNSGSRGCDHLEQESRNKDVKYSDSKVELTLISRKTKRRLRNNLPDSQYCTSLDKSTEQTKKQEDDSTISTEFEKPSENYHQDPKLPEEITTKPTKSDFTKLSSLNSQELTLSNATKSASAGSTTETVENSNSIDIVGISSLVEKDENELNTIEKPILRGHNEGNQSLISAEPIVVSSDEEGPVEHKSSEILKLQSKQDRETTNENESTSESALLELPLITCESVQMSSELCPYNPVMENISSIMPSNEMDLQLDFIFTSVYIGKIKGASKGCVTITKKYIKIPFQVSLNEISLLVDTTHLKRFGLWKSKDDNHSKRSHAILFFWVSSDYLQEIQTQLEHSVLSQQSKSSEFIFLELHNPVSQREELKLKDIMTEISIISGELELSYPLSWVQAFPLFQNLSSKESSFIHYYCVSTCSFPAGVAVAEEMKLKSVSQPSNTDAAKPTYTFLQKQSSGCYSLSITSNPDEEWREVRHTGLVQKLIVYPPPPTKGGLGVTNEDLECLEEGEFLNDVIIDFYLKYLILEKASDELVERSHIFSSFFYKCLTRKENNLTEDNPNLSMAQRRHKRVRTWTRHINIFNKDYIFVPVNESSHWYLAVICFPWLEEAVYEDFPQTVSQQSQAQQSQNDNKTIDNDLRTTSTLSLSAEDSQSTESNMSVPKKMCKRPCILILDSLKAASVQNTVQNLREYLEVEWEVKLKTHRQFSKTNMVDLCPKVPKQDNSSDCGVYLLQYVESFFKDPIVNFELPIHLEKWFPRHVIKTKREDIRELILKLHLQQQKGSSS

Caspase-3 = biological target: T2, Caspase-3 (Homo sapiens, UniProt P42574); assay type: functional;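 note: Dose-response selectivity test against caspase-3 for candidate inhibitors of sentrin-specific proteases (SENPs)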
T2 sequence (P42574 whole entry): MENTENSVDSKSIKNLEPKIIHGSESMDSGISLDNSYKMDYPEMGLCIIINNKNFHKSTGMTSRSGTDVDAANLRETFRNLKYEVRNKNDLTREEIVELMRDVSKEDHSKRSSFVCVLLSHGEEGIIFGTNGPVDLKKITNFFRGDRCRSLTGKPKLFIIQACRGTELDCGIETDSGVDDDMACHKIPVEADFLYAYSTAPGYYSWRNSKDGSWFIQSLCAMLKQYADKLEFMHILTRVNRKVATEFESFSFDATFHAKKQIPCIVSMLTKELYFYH

[5] = biological target: T3, Sentrin-specific protease 6 (Homo sapiens, UniProt Q9GZR1); assay type: functional;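 note: Luminescence-based dose-response confirmatory assay of SENP6 inhibition, following up an ultra-high-throughput screen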
T3 sequence (Q9GZR1 whole entry): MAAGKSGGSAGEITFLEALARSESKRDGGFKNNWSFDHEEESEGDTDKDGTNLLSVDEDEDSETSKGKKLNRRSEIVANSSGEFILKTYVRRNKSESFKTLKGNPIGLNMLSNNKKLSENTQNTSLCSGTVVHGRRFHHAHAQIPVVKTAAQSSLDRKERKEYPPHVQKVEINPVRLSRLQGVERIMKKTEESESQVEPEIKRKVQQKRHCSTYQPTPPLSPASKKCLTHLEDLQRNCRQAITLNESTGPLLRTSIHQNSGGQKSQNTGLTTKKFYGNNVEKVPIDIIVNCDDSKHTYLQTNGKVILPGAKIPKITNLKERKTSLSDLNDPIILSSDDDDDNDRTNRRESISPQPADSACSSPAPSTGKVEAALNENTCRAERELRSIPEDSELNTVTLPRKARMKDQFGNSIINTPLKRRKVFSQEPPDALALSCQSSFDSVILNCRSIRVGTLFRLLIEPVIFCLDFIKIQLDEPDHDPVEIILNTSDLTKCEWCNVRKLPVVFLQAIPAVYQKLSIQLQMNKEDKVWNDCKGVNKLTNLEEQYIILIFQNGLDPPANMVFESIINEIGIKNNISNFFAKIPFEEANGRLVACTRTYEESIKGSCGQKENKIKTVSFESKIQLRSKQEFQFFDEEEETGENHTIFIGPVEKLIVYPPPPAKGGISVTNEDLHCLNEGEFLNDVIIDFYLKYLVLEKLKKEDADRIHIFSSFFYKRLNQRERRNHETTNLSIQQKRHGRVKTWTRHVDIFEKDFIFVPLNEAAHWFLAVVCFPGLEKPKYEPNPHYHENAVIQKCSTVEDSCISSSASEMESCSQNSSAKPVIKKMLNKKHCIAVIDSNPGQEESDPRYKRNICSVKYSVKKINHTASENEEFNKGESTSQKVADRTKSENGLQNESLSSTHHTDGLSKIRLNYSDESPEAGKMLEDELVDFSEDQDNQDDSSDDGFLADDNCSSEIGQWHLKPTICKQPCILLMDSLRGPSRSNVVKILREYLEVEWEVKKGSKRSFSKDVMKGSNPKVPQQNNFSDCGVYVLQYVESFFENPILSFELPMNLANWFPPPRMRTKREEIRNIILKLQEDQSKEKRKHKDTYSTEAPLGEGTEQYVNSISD

[6] = biological target: T4, Sentrin-specific protease 8 (Homo sapiens, UniProt Q96LD8); assay type: functional;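 note: luminescence read-out of SENP8 inhibition, dose-response confirmation following an ultra-high-throughput screen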
T4 sequence (Q96LD8 whole entry): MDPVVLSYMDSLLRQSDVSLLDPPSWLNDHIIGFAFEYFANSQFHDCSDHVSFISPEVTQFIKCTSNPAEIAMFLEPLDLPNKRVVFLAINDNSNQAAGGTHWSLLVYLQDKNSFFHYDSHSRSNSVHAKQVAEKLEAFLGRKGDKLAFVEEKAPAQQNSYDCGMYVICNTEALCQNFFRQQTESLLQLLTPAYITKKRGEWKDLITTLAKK

Estrogen receptor = biological target: T5, Estrogen receptor (Homo sapiens, UniProt P03372);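 note: potency for inhibiting coactivator peptide recruitment to the receptor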
T5 sequence (P03372 whole entry): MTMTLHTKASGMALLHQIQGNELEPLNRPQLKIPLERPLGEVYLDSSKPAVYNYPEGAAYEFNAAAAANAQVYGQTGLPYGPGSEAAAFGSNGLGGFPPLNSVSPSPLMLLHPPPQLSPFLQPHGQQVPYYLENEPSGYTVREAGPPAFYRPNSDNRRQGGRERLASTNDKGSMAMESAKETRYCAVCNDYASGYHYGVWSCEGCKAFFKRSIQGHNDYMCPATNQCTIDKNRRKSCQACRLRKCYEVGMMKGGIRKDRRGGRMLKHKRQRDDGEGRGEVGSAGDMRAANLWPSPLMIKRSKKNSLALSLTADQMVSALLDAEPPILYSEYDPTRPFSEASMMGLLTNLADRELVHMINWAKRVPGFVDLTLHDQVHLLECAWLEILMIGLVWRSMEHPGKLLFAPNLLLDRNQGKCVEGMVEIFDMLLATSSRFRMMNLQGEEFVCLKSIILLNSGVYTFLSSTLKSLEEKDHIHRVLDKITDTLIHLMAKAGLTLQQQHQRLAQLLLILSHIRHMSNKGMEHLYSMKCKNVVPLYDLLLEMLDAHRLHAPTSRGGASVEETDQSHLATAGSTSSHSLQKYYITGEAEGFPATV

[7] = biological target: T6, Zinc finger protein mex-5 (Caenorhabditis elegans, UniProt Q9XUB2); assay: potency of MEX-5 RNA-binding blockers – biochemical, C. elegans, fluorescence polarization, dose response (AID 1960)
T6 sequence (Q9XUB2 whole entry): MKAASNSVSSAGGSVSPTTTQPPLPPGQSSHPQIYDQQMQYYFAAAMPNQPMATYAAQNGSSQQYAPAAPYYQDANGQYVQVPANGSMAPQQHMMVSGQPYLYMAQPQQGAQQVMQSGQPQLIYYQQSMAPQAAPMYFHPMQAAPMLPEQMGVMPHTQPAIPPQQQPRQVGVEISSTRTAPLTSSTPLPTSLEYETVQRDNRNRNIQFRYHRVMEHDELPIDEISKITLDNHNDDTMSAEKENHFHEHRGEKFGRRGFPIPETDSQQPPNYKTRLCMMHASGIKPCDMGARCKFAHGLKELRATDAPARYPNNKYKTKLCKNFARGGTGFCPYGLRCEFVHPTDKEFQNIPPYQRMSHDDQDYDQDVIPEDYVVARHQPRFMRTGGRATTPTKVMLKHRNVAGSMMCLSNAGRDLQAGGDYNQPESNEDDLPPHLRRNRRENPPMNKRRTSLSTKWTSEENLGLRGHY

[8] = biological target: T7, RNA-binding protein pos-1 (Caenorhabditis elegans, UniProt G5EF15); assay: disruptors of C. elegans POS-1 RNA interaction – biochemical, fluorescence polarization, dose response (AID 1964);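 note: purified POS-1 fused to maltose binding protein made in E. coli; potency of compounds blocking POS-1 binding to fluorescent RNA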
T7 sequence (G5EF15 whole entry): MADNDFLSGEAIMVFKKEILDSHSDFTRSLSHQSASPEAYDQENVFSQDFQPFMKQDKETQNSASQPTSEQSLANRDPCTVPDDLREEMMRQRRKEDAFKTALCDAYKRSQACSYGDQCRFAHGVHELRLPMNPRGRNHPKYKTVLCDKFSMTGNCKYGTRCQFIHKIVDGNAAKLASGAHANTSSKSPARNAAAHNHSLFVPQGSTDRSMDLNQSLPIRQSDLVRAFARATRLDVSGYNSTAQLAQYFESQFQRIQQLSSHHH

[9] = biological target: FAD-linked sulfhydryl oxidase ALR (Homo sapiens, UniProt P55789); assay: ALR-catalysed DTT oxidation blockers – biochemical, H2O2 detection, luminescence, cherry-pick, dose response (AID 493248)
Chain of FAD-linked sulfhydryl oxidase ALR (P55789 whole entry): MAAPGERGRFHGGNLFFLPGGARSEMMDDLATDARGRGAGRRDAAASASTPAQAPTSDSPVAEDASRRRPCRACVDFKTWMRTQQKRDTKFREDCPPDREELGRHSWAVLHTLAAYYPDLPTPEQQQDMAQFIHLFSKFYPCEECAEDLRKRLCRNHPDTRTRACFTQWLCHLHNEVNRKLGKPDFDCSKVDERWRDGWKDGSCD

H4 = assay: Luminescence Cell-Based Dose Response HTS to Identify Activators of 5'UTR Stem-Loop Driven Prion Protein mRNA Translation in H4 Neuroglioblastoma Cells. [Related pubchem assays: 1829 (Project Summary), 1814 (Primary HTS)]; assay type: functional; details: Homo sapiens
[10] = Luminescence Cell-Based Dose Response HTS to Identify Activators of Luciferase Translation or Activity in H4 […] Cells. [Related pubchem assays: 1829 (Project Summary), 1814 (Primary HTS)]; assay type: functional
[11] = Luminescence Cell-Based Dose Confirmation HTS to Identify Activators of 5'UTR Stem-Loop Driven Alpha-Synuclein mRNA Translation in H4 Neuroglioblastoma Cells. [Related pubchem assays: 1829 (Project Summary), 1814 (Primary HTS)]; assay type: functional
HEK293 [12] = assay: inhibition of NOD1-driven NF-kB reporter – cell-based, luminescence, uHTS, primary screen (AID 1578); assay type: functional; details: Homo sapiens
HEK293 [13] = assay: cells; assay type: functional, cell-based; details: Homo sapiens
HEK293 [14] = assay: NOD2 signaling inhibitors in MDP-stimulated cells, cell-based, uHTS, luminescence (AID 2001); assay type: functional; details: Homo sapiens
[15] = Luminescence Cell-Based Dose Retest to Confirm Inhibitors of Cancer Stem Cells. [Related pubchem assays (depositor defined):AID2717, AID2721]; assay type: functional; details: Homo sapiens
HEK293 [16] = assay: cells; assay type: functional, cell-based; details: Homo sapiens; remark: listed apart in the source

Chain of Nonstructural protein 1 (Q194T2 whole entry): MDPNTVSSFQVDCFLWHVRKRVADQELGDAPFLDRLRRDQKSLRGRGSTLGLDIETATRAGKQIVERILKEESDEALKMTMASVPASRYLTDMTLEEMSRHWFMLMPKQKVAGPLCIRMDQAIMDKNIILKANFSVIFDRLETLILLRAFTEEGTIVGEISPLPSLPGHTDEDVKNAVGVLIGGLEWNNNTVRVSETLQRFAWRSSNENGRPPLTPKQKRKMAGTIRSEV

O=S(=O)(/C=C/c1ccccc1)NC1CCCCCC1
AC50 [1]: 10.5 µM (active)

OCCOCCn1c(C2CCCN2c2nc(-c3ccc(F)cc3)cs2)nc2cc(C(F)(F)F)ccc21 (stereo not given)
AC50 [1]: 7.57 µM (active)

COc1ccc([C@@]2(C(C)C)ON(c3ccccc3C(F)(F)F)C2=O)cc1
CC50 (Vero): > 25 µM (active)

COc1ccccc1NC(=O)CSc1n[nH]c(-c2ccccn2)n1
IC50 (Nonstructural protein 1): 6.84 µM (active)

CC1CCN(c2c([N+](=O)[O-])nn(-c3ccc4c(c3)OCCO4)[n+]2[O-])CC1
IC50 (Nonstructural protein 1): 58.9 µM (active)
EC50 [2]: > 60 µM (not active)
EC50 [3]: 0.431 µM (active)

COc1ccc(N(C(=O)c2ccncc2)S(=O)(=O)c2ccc(Cl)cc2)cc1
AC50 [1]: 0.354 µM (active)

O=C(Nc1ccccc1Cl)Nc1cccc2cccnc12
IC50 [4]: 7.41 µM (active)
IC50 (Caspase-3): 29.4 µM (active)
IC50 [5]: > 100 µM (inactive)
IC50 [6]: 6.08 µM (active)

Cc1cccc(N2C(=O)C=CC2=O)c1
AC50 [1]: 1.63 µM (active)

O=C(Cc1cccs1)Nc1nnc(COc2ccccc2)s1
IC50 (Estrogen receptor): 37.3 µM (not active)

Cc1ccc(C[S+]([O-])Cc2ccc(C(=O)N3CCN(c4ccccc4)CC3)o2)cc1 (stereo not given)
EC50 [7]: > 300 µM (not active)
EC50 [2]: 33.2 µM (active)
EC50 [8]: > 300 µM (not active)
EC50 [3]: 7.61 µM (active)
AC50 [9]: 5.92 µM (active)

C[C@@H]1CC[C@H](Cc2ccc(-n3cccc3)cc2)N1C(=O)OC(C)(C)C
CC50 (Vero): > 25 µM (active)

COc1ccc(-c2nc3ccccc3c(=O)[nH]2)cc1
IC50 [4]: 6.89 µM (active)
IC50 (Caspase-3): 6.83 µM (active)
IC50 [5]: 17.3 µM (active)
IC50 [6]: > 100 µM (inactive)

O=C(CSc1nc2cc(Cl)ccc2s1)NC(=O)NCc1ccco1
IC50 (Estrogen receptor): > 50 µM (not active)

CC(C)OC(=O)c1cc2c(ccn2C)n1CC(=O)N(Cc1ccccc1)c1ccc(F)cc1
IC50 (Nonstructural protein 1): > 100 µM (active)

S=C(NNc1ccc2ccccc2c1)NC1CCCCC1
EC50 (H4): 9.85 µM (active)
IC50 (Nonstructural protein 1): > 100 µM (active)
EC50 [10]: 30.4 µM (active)
EC50 [11]: 42.1 µM (active)

CC1(C)C=C2[C@H]3CC[C@@H]4[C@@]5(C)CCC(=O)C(C)(C)[C@@H]5CC[C@@]4(C)[C@]3(C)CC[C@@]2(C(=O)O)CC1 [MORONIC ACID]
EC50 (HEK293 [12]): 2.27 µM (active)
IC50 (HEK293 [13]): 15.7 µM (active)
IC50 (HEK293 [14]): 8.08 µM (active)
AC50 [15]: 3.35 µM (active)
IC50 (HEK293 [16]): 10.9 µM (active)
